Data reported in patent US9429568B2, “Silaanthracene as a red and near infrared sensor and a method to manufacture such a sensor” (Board of Trustees of Southern Illinois University on Behalf …, priority 2010, dated 2016).

Legend:
[1] = Hypochlorous acid (HOCl) sensor: fluorescence and absorbance response to added HOCl; format: physicochemical; settings: 0.5 μM compound; for peak emission intensity wavelength: all HOCl concentrations
Description: A solution of compound 3 from Table 2 herein was formed at a concentration of 0.5 μM and at a pH of 7.4. HOCl was added to the solution at concentrations ranging up to 2 μM and the fluorescence of the resulting solutions was measured after exposure to an excitatory light pulse of 655 nm.
A solution of compound 29 from Table 5 herein was formed at a concentration of 0.5 μM and at a pH of 7.4. HOCl was added to the solution at concentrations ranging up to 5 μM and the fluorescence of the resulting solutions was measured after exposure to an excitatory light pulse of 580 nm.

[2] = Ratiometric sensor for hypochlorous acid and pH: UV-Vis and fluorescence in buffer series; format: physicochemical; settings: excited at 430 nm, all HOCl concentrations, phosphate or citrate/phosphate buffer, 0.5% DMF
Description: A solution of compound 29 from Table 4 herein was dissolved in a series of phosphate buffer or citrate/phosphate buffer solutions using 0.5% DMF for dissolution. The pH level of each sample solution was checked using a digital pH meter (Accumet, AB15) equipped with a glass electrode (Accumet, pH/ATC Calomel) to confirm the pH of each sample solution. After recording the pH of a sample solution, 20 mL of the sample solution was stirred in a 50 mL beaker to saturate the sample solution with oxygen. Small aliquots from a dilute HOCl solution were then added to the sample solution. After the addition of each HOCl aliquot, the sample solution was stirred for approximately 45 seconds and then the UV-Vis and fluorescence of the sample solution was measured using a quartz cuvette with fluorescence excitations at 570 nm and 430 nm. The concentration of the NaOCl solution was determined by using a standardized sodium thiosulfate solution.

| SMILES | peak emission intensity wavelength ([1]; pH 7.4, HOCl up to 2 μM, excitation 655 nm) [nm] | first emission intensity peak wavelength [2] [nm] | second more intense emission peak wavelength [2] [nm] | maximum absorbance wavelength λmax ([1]; pH 7.4, HOCl up to 5 μM) [nm] | shoulder peak emission wavelength ([1]; pH 7.4, HOCl up to 5 μM, excited at 430 nm) [nm] | peak emission intensity wavelength ([1]; pH 7.4, HOCl up to 5 μM, excited at 570 nm) [nm] |
| --- | --- | --- | --- | --- | --- | --- |
| CN(C)c1ccc2c(c1)[Si](C)(C)c1cc(N(C)C)ccc1C21SCc2ccccc21 [Compound 3] | 663 |  |  |  |  |  |
| C[Si]1(C)c2cc(O)ccc2C2(c3ccccc3C(=O)N2CCN2CCNCCNCCNCC2)c2ccc(O)cc21 [Compound 29] |  | 570 | 600 | 590 | 570 | 605 |
